Data taken from PubChem BioAssay AID248 (DTP/NCI, 2004).
Inconclusive results and toxic doses are left out.

Test system: L1210 leukemia ip in BDF1 mice, survival T/C
Assay: NCI In Vivo Anticancer Drug Screen. Data for tumor model L1210 Leukemia (intraperitoneal) in B6D2F1 (BDF1) mice
Conditions: higher = longer survival
In short: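 Ratio derived from survival: compound-dosed mice over vehicle-dosed mice, all bearing a transplantable tumor.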

[1] = endpoint: mean survival time, dose: 100.0 mg/kg/injection, schedule: Q01DX001 (ip), vehicle: carboxymethylcellulose (CMC)
[2] = endpoint: mean survival time, dose: 200.0 mg/kg/injection, schedule: Q01DX001 (ip), vehicle: carboxymethylcellulose (CMC)
[3] = endpoint: mean survival time, dose: 400.0 mg/kg/injection, schedule: Q01DX001 (ip), vehicle: carboxymethylcellulose (CMC)
[4] = endpoint: mean survival time, dose: 100.0 mg/kg/injection, schedule: Q01DX009 (ip), vehicle: Klucel (hydroxypropylcellulose) (HPC)
[5] = endpoint: mean survival time, dose: 100.0 mg/kg/injection, schedule: Q04DX003 (ip), vehicle: Klucel (hydroxypropylcellulose) (HPC)
[6] = endpoint: mean survival time, dose: 200.0 mg/kg/injection, schedule: Q01DX009 (ip), vehicle: Klucel (hydroxypropylcellulose) (HPC)
[7] = endpoint: mean survival time, dose: 200.0 mg/kg/injection, schedule: Q04DX003 (ip), vehicle: Klucel (hydroxypropylcellulose) (HPC)
[8] = endpoint: mean survival time, dose: 400.0 mg/kg/injection, schedule: Q01DX009 (ip), vehicle: Klucel (hydroxypropylcellulose) (HPC)
[9] = endpoint: mean survival time, dose: 400.0 mg/kg/injection, schedule: Q04DX003 (ip), vehicle: Klucel (hydroxypropylcellulose) (HPC)
[10] = endpoint: mean survival time, dose: 100.0 mg/kg/injection, schedule: Q01DX009 (ip), vehicle: saline with Tween-80
[11] = endpoint: mean survival time, dose: 200.0 mg/kg/injection, schedule: Q01DX009 (ip), vehicle: saline with Tween-80
[12] = endpoint: mean survival time, dose: 100.0 mg/kg/injection, schedule: Q01DX001 (ip), vehicle: other
[13] = endpoint: mean survival time, dose: 200.0 mg/kg/injection, schedule: Q01DX001 (ip), vehicle: other
[14] = endpoint: mean survival time, dose: 400.0 mg/kg/injection, schedule: Q01DX001 (ip), vehicle: other
[15] = endpoint: mean survival time, dose: 100.0 mg/kg/injection, schedule: Q04DX003 (ip), vehicle: saline with Tween-80
[16] = endpoint: mean survival time, dose: 200.0 mg/kg/injection, schedule: Q04DX003 (ip), vehicle: saline with Tween-80
[17] = endpoint: mean survival time, dose: 400.0 mg/kg/injection, schedule: Q04DX003 (ip), vehicle: saline with Tween-80
[18] = endpoint: mean survival time, dose: 100.0 mg/kg/injection, schedule: Q01DX001 (ip), vehicle: saline
[19] = endpoint: mean survival time, dose: 200.0 mg/kg/injection, schedule: Q01DX001 (ip), vehicle: saline
[20] = endpoint: mean survival time, dose: 400.0 mg/kg/injection, schedule: Q01DX001 (ip), vehicle: saline
[21] = endpoint: mean survival time, dose: 100.0 mg/kg/injection, schedule: Q01DX009 (ip), vehicle: saline
[22] = endpoint: mean survival time, dose: 200.0 mg/kg/injection, schedule: Q01DX009 (ip), vehicle: saline
[23] = endpoint: mean survival time, dose: 400.0 mg/kg/injection, schedule: Q01DX009 (ip), vehicle: saline
[24] = endpoint: mean survival time, dose: 50.0 mg/kg/injection, schedule: Q01DX009 (ip), vehicle: saline
[25] = endpoint: mean survival time, dose: 100.0 mg/kg/injection, schedule: Q04DX003 (ip), vehicle: saline
[26] = endpoint: mean survival time, dose: 200.0 mg/kg/injection, schedule: Q04DX003 (ip), vehicle: saline

For Oc1ccc(N=C/C=C/c2ccccc2)cc1, the T/C [1] was 86 % of control, the T/C [2] was 89 % of control and the T/C [3] was 91 % of control.
In the case of C[C@]12CC[C@H](O)C[C@@]1(O)CC[C@@H]1[C@@H]2CC[C@]2(C)[C@@H](c3ccc(=O)oc3)CC[C@]12O, the T/C (endpoint: mean survival time, dose: 1.25 mg/kg/injection, schedule: Q01DX009 (ip), vehicle: Klucel (hydroxypropylcellulose) (HPC)) was 107 % of control, the T/C (endpoint: mean survival time, dose: 2.5 mg/kg/injection, schedule: Q01DX009 (ip), vehicle: Klucel (hydroxypropylcellulose) (HPC)) was 91 % of control and the T/C (endpoint: mean survival time, dose: 5.0 mg/kg/injection, schedule: Q01DX009 (ip), vehicle: Klucel (hydroxypropylcellulose) (HPC)) was 96 % of control. The T/C (endpoint: mean survival time, dose: 10.0 mg/kg/injection, schedule: Q01DX009 (ip), vehicle: Klucel (hydroxypropylcellulose) (HPC)) was 102 % of control, the T/C (endpoint: mean survival time, dose: 20.0 mg/kg/injection, schedule: Q01DX009 (ip), vehicle: Klucel (hydroxypropylcellulose) (HPC)) was 98 % of control and the T/C (endpoint: mean survival time, dose: 25.0 mg/kg/injection, schedule: Q01DX009 (ip), vehicle: carboxymethylcellulose (CMC)) was 106 % of control. The T/C (endpoint: mean survival time, dose: 50.0 mg/kg/injection, schedule: Q01DX001 (ip), vehicle: carboxymethylcellulose (CMC)) was 104 % of control, the T/C (endpoint: mean survival time, dose: 50.0 mg/kg/injection, schedule: Q01DX009 (ip), vehicle: carboxymethylcellulose (CMC)) was 92 % of control and the T/C [1] was 109 % of control.
In the case of CN(C(=O)N(C)c1ccccc1)c1ccccc1, the T/C [4] was 102 % of control, the T/C [5] was 103 % of control and the T/C [6] was 96 % of control. The T/C [7] was 103 % of control, the T/C [8] was 95 % of control and the T/C [9] was 103 % of control.
With CC(C)=NNC(=O)c1ccc(N)cc1 the T/C [10] was 91 % of control and the T/C [11] was 101 % of control.
In the case of O=C(O)Cc1ccc(Cl)c2ccccc12, the T/C (endpoint: mean survival time, dose: 100.0 mg/kg/injection, schedule: Q04DX002 (ip), vehicle: Klucel (hydroxypropylcellulose) (HPC)) was 101 % of control, the T/C (endpoint: mean survival time, dose: 200.0 mg/kg/injection, schedule: Q04DX002 (ip), vehicle: Klucel (hydroxypropylcellulose) (HPC)) was 104 % of control and the T/C (endpoint: mean survival time, dose: 400.0 mg/kg/injection, schedule: Q04DX002 (ip), vehicle: Klucel (hydroxypropylcellulose) (HPC)) was 107 % of control.
CSC(=NC1CCCCC1)Nc1ccccc1 was tested, and the T/C [12] was 98 % of control, the T/C [13] was 98 % of control and the T/C [14] was 88 % of control.
In the case of C[n+]1c(I)ccc2ccccc21, the T/C [12] was 105 % of control, the T/C [13] was 105 % of control and the T/C [14] was 110 % of control.
For CC(=O)Oc1cc(C=O)cc(OC(C)=O)c1OC(C)=O, the T/C [10] was 106 % of control, the T/C [15] was 106 % of control and the T/C [11] was 118 % of control. For the same compound, the T/C [16] was 121 % of control, the T/C (endpoint: mean survival time, dose: 400.0 mg/kg/injection, schedule: Q01DX009 (ip), vehicle: saline with Tween-80) was 90 % of control and the T/C [17] was 108 % of control.
For NC(CCCO)Cc1cc2ccccc2c2ccccc12 (centres undefined), the T/C [18] was 101 % of control, the T/C [19] was 101 % of control and the T/C [20] was 109 % of control.
For CN(C)/N=C/c1ccccc1O, the T/C [21] was 96 % of control, the T/C [22] was 104 % of control and the T/C [23] was 96 % of control.
Cc1ccc(S(=O)(=O)N(C)c2ccc(C#N)c3ccccc23)cc1 was tested, and the T/C [15] was 97 % of control, the T/C [16] was 89 % of control and the T/C [17] was 90 % of control.
For COC(=O)c1ccccc1N=NN(C)C, the T/C [1] was 102 % of control, the T/C [2] was 102 % of control and the T/C (endpoint: median survival time, dose: 65.0 mg/kg/injection, schedule: Q01DX001 (ip), vehicle: steriod suspending solution) was 110 % of control. For the same compound, the T/C (endpoint: median survival time, dose: 108.0 mg/kg/injection, schedule: Q01DX001 (ip), vehicle: steriod suspending solution) was 105 % of control, the T/C (endpoint: median survival time, dose: 180.0 mg/kg/injection, schedule: Q01DX001 (ip), vehicle: steriod suspending solution) was 120 % of control and the T/C (endpoint: median survival time, dose: 300.0 mg/kg/injection, schedule: Q01DX001 (ip), vehicle: steriod suspending solution) was 105 % of control.
With NNCCc1ccccc1 the T/C (endpoint: mean survival time, dose: 6.25 mg/kg/injection, schedule: Q01DX009 (ip), vehicle: saline) was 105 % of control, the T/C (endpoint: mean survival time, dose: 12.5 mg/kg/injection, schedule: Q01DX009 (ip), vehicle: saline) was 101 % of control and the T/C (endpoint: mean survival time, dose: 25.0 mg/kg/injection, schedule: Q01DX009 (ip), vehicle: saline) was 95 % of control. The T/C (endpoint: mean survival time, dose: 25.0 mg/kg/injection, schedule: Q04DX003 (ip), vehicle: saline) was 120 % of control, the T/C [24] was 104 % of control and the T/C (endpoint: mean survival time, dose: 50.0 mg/kg/injection, schedule: Q04DX003 (ip), vehicle: saline) was 106 % of control. For the same compound, the T/C [25] was 111 % of control.
For Cc1ccc(C=C2c3ccccc3-c3ccccc32)cc1, the T/C (endpoint: mean survival time, dose: 12.5 mg/kg/injection, schedule: Q04DX002 (ip), vehicle: gum acacia) was 120 % of control, the T/C (endpoint: mean survival time, dose: 25.0 mg/kg/injection, schedule: Q04DX002 (ip), vehicle: gum acacia) was 88 % of control and the T/C (endpoint: mean survival time, dose: 50.0 mg/kg/injection, schedule: Q04DX002 (ip), vehicle: gum acacia) was 98 % of control.
For Cc1ccc(NC(=O)C(F)(F)C(F)(F)C(F)(F)F)cc1, the T/C [18] was 89 % of control, the T/C [19] was 97 % of control and the T/C [20] was 105 % of control.
With CN=C(N)c1ccc(N=C(N)c2ccc(N=C(N)c3ccc(N)cc3)cc2)cc1 the T/C (endpoint: mean survival time, dose: 4.25 mg/kg/injection, schedule: Q01DX Z (ip), vehicle: water) was 112 % of control, the T/C (endpoint: mean survival time, dose: 8.5 mg/kg/injection, schedule: Q01DX Z (ip), vehicle: water) was 120 % of control and the T/C (endpoint: mean survival time, dose: 35.0 mg/kg/injection, schedule: Q01DX015 (ip), vehicle: saline) was 151 % of control. The T/C (endpoint: mean survival time, dose: 50.0 mg/kg/injection, schedule: Q01DX001 (ip), vehicle: saline) was 115 % of control, the T/C (endpoint: mean survival time, dose: 62.5 mg/kg/injection, schedule: Q01DX Z (oral), vehicle: water) was 101 % of control and the T/C (endpoint: mean survival time, dose: 125.0 mg/kg/injection, schedule: Q01DX Z (oral), vehicle: water) was 103 % of control. For the same compound, the T/C (endpoint: mean survival time, dose: 250.0 mg/kg/injection, schedule: Q01DX Z (oral), vehicle: water) was 102 % of control.
BrC1(Br)C2CC3C(CC21)C3(Br)Br (centres undefined) was tested, and the T/C (endpoint: mean survival time, dose: 100.0 mg/kg/injection, schedule: Q01DX001 (ip), vehicle: saline sonified) was 98 % of control, the T/C (endpoint: mean survival time, dose: 200.0 mg/kg/injection, schedule: Q01DX001 (ip), vehicle: saline sonified) was 96 % of control and the T/C (endpoint: mean survival time, dose: 400.0 mg/kg/injection, schedule: Q01DX001 (ip), vehicle: saline sonified) was 98 % of control.
For COC(=O)c1cc(Cl)ccc1OCC(=O)Nc1ccc([N+](=O)[O-])cc1, the T/C [4] was 98 % of control, the T/C [5] was 102 % of control and the T/C [6] was 93 % of control. For the same compound, the T/C [7] was 95 % of control, the T/C [8] was 105 % of control and the T/C [9] was 103 % of control.
With O=C(Nc1cccc2ccccc12)OC1CCCCC1Br (centres undefined) the T/C (endpoint: mean survival time, dose: 200.0 mg/kg/injection, schedule: Q01DX001 (ip), vehicle: saline with Tween-80) was 89 % of control and the T/C (endpoint: mean survival time, dose: 400.0 mg/kg/injection, schedule: Q01DX001 (ip), vehicle: saline with Tween-80) was 89 % of control.
In the case of COc1ccc(C(=O)/C=C/c2ccccc2Cl)cc1, the T/C [15] was 97 % of control and the T/C [16] was 97 % of control.
In the case of NC(=O)C1C2C=CC(O2)C1C(N)=O (centres undefined), the T/C (endpoint: mean survival time, dose: 100.0 mg/kg/injection, schedule: Q04DX002 (ip), vehicle: saline) was 89 % of control and the T/C (endpoint: mean survival time, dose: 200.0 mg/kg/injection, schedule: Q04DX002 (ip), vehicle: saline) was 92 % of control.
COC(=O)C1OC1c1ccc(OC)c(OC)c1 (centres undefined) was tested, and the T/C [1] was 95 % of control, the T/C [2] was 97 % of control and the T/C [3] was 101 % of control.
With Cn1nnnc1N the T/C [4] was 96 % of control, the T/C [21] was 98 % of control and the T/C [25] was 103 % of control. For the same compound, the T/C [6] was 100 % of control, the T/C [22] was 96 % of control and the T/C [26] was 105 % of control. For the same compound, the T/C [8] was 95 % of control, the T/C [23] was 89 % of control and the T/C (endpoint: mean survival time, dose: 400.0 mg/kg/injection, schedule: Q04DX003 (ip), vehicle: saline) was 100 % of control.
CCCCSP(SCCCC)N1CCCCC1 was tested, and the T/C [25] was 102 % of control and the T/C [26] was 98 % of control.
For Cc1cccc(CN)n1, the T/C [24] was 98 % of control, the T/C [21] was 98 % of control and the T/C [25] was 104 % of control. The T/C [22] was 97 % of control and the T/C [26] was 104 % of control.
